According to BindingDB's records for patent US20240148821 (Chugai Seiyaku Kabushiki Kaisha, 2024):
Numbered stars: 1 amine (or outer) side, 2 acyl side, 3 side chain; on linkers, the order of the positions; unused ones are H or OH. Bridge positions count the residues as written; N and C are the ends. Square brackets hold non-standard residues; d marks the D form. Peptide text beside a SMILES is read from it. * marks the point of attachment. ξ: configuration not given here. hPhe(3-Cl-4-CF3) = N[C@@H](CCc1ccc(C(F)(F)F)c(Cl)c1)C(=O)O; X101 = CN([C@@H](CCc1cscn1)C(=O)[*:2])[*:1]; NMedβ3hAla = C[C@H](CC(=O)[*:2])N(C)[*:1]; NMeGly(cPent) = CN[C@H](C(=O)O)C1CCCC1; NMehCha = CN[C@@H](CCC1CCCCC1)C(=O)O; NMeCha = CN[C@@H](CC1CCCCC1)C(=O)O; ξPro(4,4-F2) = O=C(O)C1CC(F)(F)CN1; NMeChg = CN[C@H](C(=O)O)C1CCCCC1; N(CH2CH2)2CF2 = FC1(F)CCN(*)CC1; NMeD = CN[C@@H](CC(=O)O)C(=O)O; NMeL = CN[C@@H](CC(C)C)C(=O)O; Cba = N[C@@H](CC1CCC1)C(=O)O; NMeV = CN[C@H](C(=O)O)C(C)C; Ac7c = NC1(C(=O)O)CCCCCC1; NMeA = CN[C@@H](C)C(=O)O; Piperidide = C1CCN(*)CC1; Pyrrolidide = C1CCN(*)C1; Ac5c = NC1(C(=O)O)CCCC1; ξAze = O=C(O)C1CCN1; ξP = O=C(O)C1CCCN1; Sar = CNCC(=O)O

The compounds below were run against GTPase KRas (G12D) and Son of Sevenless Homolog 1 (SOS) (Homo sapiens, UniProt P01116, G12D) (assay: AlphaScreen Assay).
GTPase KRas (G12D) and Son of Sevenless Homolog 1 (SOS), sequence (P01116 whole entry G12D): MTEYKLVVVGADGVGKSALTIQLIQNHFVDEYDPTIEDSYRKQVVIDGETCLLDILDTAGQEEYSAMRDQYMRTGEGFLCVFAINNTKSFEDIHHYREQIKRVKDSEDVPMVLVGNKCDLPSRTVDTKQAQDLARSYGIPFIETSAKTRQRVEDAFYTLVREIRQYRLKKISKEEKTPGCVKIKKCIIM
GTPase KRas (G12D) and Son of Sevenless Homolog 1 (SOS), sequence (Q07889 whole entry, further chain): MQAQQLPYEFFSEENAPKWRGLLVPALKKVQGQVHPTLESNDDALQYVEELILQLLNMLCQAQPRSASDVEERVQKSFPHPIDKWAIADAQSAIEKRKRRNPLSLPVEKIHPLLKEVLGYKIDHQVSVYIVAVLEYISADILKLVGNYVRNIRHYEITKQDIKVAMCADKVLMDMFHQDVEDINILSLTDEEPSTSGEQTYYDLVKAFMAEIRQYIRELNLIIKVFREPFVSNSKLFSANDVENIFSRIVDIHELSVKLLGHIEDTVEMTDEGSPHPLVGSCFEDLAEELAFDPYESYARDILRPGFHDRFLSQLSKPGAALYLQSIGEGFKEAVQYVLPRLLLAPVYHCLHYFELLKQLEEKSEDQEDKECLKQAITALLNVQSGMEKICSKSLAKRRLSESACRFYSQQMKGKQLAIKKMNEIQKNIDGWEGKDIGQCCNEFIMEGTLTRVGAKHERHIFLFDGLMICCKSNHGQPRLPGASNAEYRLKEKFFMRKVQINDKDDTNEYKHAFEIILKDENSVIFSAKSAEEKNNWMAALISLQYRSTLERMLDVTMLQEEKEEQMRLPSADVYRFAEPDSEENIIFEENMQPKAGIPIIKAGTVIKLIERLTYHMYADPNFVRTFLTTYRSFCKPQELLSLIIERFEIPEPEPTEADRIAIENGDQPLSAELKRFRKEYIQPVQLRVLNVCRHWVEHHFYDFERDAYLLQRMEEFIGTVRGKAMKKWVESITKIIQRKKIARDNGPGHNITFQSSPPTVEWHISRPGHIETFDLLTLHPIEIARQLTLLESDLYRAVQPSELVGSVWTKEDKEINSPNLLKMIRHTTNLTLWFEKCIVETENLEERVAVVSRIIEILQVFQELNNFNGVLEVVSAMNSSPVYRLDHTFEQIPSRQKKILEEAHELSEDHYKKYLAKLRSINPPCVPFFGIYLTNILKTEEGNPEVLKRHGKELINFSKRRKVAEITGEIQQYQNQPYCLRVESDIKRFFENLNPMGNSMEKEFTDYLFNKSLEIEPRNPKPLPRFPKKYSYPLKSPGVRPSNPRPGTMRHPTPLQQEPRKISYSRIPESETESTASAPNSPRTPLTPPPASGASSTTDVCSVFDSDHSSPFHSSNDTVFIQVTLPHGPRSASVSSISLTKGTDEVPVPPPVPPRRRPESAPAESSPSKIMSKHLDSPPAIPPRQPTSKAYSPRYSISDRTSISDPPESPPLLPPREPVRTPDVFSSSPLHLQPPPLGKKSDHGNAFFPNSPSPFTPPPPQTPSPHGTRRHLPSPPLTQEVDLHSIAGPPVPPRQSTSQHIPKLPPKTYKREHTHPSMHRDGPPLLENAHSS

Row | SMILES | IC50 [nM]
1 | CC[C@H](C)[C@@H]1NC(=O)[C@H](CC(C)C)N(C)C(=O)C[C@@H](C(=O)N2CCCC2)N(C)C(=O)[C@H](C2CCCC2)N(C)C(=O)C2(CCCC2)NC(=O)[C@H](CC(=O)N2CCC(F)(F)CC2)N(C)C(=O)[C@H](CCc2ccc(C(F)(F)F)c(Cl)c2)NC(=O)CN(C)C(=O)[C@H](CCC2CCCCC2)N(C)C(=O)C2CCN2C(=O)[C@H](C)N(C)C1=O (some centres undefined) [US20240148821, Compound 26] ([NMeL]I[NMeA][ξAze][NMehCha][Sar][hPhe(3-Cl-4-CF3)][NMeD](N(CH2CH2)2CF2)[Ac5c][NMeGly(cPent)][NMeD]-Pyrrolidide; lactam N-11) | 4.3
2 | CC[C@H](C)[C@@H]1NC(=O)[C@H](CC(C)C)N(C)C(=O)C[C@@H](C)N(C)C(=O)[C@H](C2CCCC2)N(C)C(=O)C2(CCCC2)NC(=O)C2CC(F)(F)CN2C(=O)[C@H](CCc2ccc(C(F)(F)F)c(Cl)c2)NC(=O)CN(C)C(=O)[C@H](CCC2CCCCC2)N(C)C(=O)CN(C)C(=O)CN(C)C1=O (some centres undefined) [US20240148821, Compound 107] (cyclo([Ac5c][NMeGly(cPent)][NMedβ3hAla][NMeL]I[Sar][Sar][NMehCha][Sar][hPhe(3-Cl-4-CF3)][ξPro(4,4-F2)])) | 4
3 | CCCC[C@@H]1NC(=O)[C@H](Cc2cccc(I)c2)NC(=O)CN(CC)C(=O)[C@H](Cc2ccc(Cl)cc2)N(CC)C(=O)CN(CC)C(=O)CN(CC)C(=O)[C@H]([C@@H](C)CC)NC(=O)[C@H](CC(C)C)N(CC)C(=O)CC(C(=O)N2CCCCC2)N(CC)C(=O)[C@H](CC(C)C)NC(=O)[C@H](Cc2ccccc2OC(F)(F)F)N(CC)C1=O (some centres undefined) [US20240148821, Compound 111] | 100
4 | CC[C@H](C)[C@@H]1NC(=O)[C@H](CC(C)C)N(C)C(=O)C[C@@H](C)NC(=O)[C@H](CC(C)C)N(C)C(=O)C(C)(C)NC(=O)[C@H](CC(C)C)N(C)C(=O)[C@H](CCc2cc(F)c(C(F)(F)F)c(F)c2)NC(=O)CN(C)C(=O)[C@H](C(=O)CC2CCCCC2)N(C)C(=O)CN(C)C(=O)CN(C)C1=O [US20240148821, Compound 119] | 39
5 | C#CCC[C@H]1C(=O)N[C@@H]([C@@H](C)CC)C(=O)N(C)CC(=O)N(C)CC(=O)N(C)[C@@H](CCc2ccc(I)cc2)C(=O)N(C)CC(=O)N[C@@H](CCc2ccc(C(F)(F)F)c(Cl)c2)C(=O)N2CCCC2C(=O)NC2(CCCC2)C(=O)N(C)[C@@H](C2CCCCC2)C(=O)N[C@H](C)CC(=O)N1C (some centres undefined) [US20240148821, Compound 300] | 9.5

More lines, in order of falling IC50, values ahead:

Row | IC50 [nM] | SMILES
6 | 160 | CC(C)C[C@H]1C(=O)N[C@@H](C2CC2)C(=O)N(C)CC(=O)N(C)CC(=O)N(C)[C@@H](CCC2CCCCC2)C(=O)N(C)CC(=O)N[C@@H](CCc2ccc(C(F)(F)F)c(Cl)c2)C(=O)N2CCCC2C(=O)NC2(CCCC2)C(=O)N(C)[C@@H](C(C)C)C(=O)N[C@H](C)CC(=O)N1C (some centres undefined) [US20240148821, Compound 101]
7 | 39 | CC[C@H](C)[C@@H]1NC(=O)[C@H](CCC2CCC2)N(C)C(=O)C[C@@H](C)NC(=O)[C@H](C(C)C)N(C)C(=O)C2(CCCC2)NC(=O)C2CCCN2C(=O)[C@H](CCc2ccc(C(F)(F)F)c(Cl)c2)NC(=O)CN(C)C(=O)[C@H](CC2CCCCC2)N(C)C(=O)CN(C)C(=O)CN(C)C1=O (some centres undefined) [US20240148821, Compound 230]
8 | 10 | CC(C)C[C@H]1C(=O)N[C@@H](CC2CCC2)C(=O)N(C)CC(=O)N(C)CC(=O)N(C)[C@@H](CC2CCCCC2)C(=O)N(C)CC(=O)N[C@@H](CCc2ccc(C(F)(F)F)c(Cl)c2)C(=O)N2CCCC2C(=O)NC2(CCCCCC2)C(=O)N(C)[C@@H](C(C)C)C(=O)N(C)[C@H](C(=O)N2CCCCC2)CC(=O)N1C (some centres undefined) [US20240148821, Compound 451] ([NMeL][Cba][Sar][Sar][NMeCha][Sar][hPhe(3-Cl-4-CF3)][ξP][Ac7c][NMeV][NMeD]-Piperidide; lactam N-11)
9 | 4.8 | CC[C@H](C)[C@@H]1NC(=O)[C@H](CC(C)C)N(C)C(=O)C[C@@H](C(=O)N2CCCCC2)N(C)C(=O)[C@H](C2CCCCC2)N(C)C(=O)C2(CCCC2)NC(=O)[C@H](CCc2cscn2)N(C)C(=O)[C@H](CCc2ccc(C(F)(F)F)c(Cl)c2)NC(=O)CN(C)C(=O)[C@H](CC2CCCCC2)N(C)C(=O)CN(C)C(=O)CN(C)C1=O [US20240148821, Compound 500] ([NMeL]I[Sar][Sar][NMeCha][Sar][hPhe(3-Cl-4-CF3)][X101][Ac5c][NMeChg][NMeD]-Piperidide; lactam N-11)
